According to US12180193B2, “Accelerating fibrosarcoma protein degrading compounds and associated methods of use” (Arvinas Operations, Inc., priority 2020, dated 2024):
Where two headings read alike, the source gives them in different places.

Columns and labels:
BRAF V600E = biological target: T1, BRAF V600E (Homo sapiens, UniProt P15056, V600E); assay: Cellular assay of target protein degradation, T-Rex 293 cells stably transfected with HA-BRAF_V600E (HA immunofluorescence, high content imaging); format: cell-based
T1 construct: expressed in transfected cells
T1 sequence (P15056 whole entry V600E): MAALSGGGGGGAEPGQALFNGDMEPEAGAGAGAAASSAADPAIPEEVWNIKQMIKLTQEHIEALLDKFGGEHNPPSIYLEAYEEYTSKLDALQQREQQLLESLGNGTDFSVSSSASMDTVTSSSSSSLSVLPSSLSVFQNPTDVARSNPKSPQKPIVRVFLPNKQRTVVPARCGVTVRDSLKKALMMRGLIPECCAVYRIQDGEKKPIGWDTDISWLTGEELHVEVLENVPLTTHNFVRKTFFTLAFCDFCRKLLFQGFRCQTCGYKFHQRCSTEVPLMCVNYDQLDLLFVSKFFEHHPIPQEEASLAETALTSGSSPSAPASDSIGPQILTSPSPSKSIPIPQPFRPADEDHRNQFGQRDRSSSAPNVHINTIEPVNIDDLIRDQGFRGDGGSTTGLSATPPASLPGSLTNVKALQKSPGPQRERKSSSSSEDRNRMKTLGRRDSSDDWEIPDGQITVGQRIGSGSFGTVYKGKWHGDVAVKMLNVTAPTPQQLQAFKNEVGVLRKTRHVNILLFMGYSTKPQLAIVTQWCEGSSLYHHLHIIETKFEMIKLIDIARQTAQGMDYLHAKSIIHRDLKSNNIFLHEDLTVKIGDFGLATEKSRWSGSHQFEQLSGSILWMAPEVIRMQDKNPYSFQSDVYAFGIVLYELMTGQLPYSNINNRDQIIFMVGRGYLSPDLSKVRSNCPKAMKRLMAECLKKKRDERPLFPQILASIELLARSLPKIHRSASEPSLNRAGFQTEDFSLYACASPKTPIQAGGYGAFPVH
How it was run: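 HA immunofluorescence on fixed cells, imaged by high-content reader, measured loss of HA-BRAF V600E in stably transfected T-Rex 293 cells induced with 1 ng/mL doxycycline. Compounds were applied for 24 h at 37 °C (final 0.1 nM–1 μM, 0.1% DMSO); DC50 and Dmax (% of control) were reported.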

BRAF G466V = biological target: T2, BRAF G466V (Homo sapiens, UniProt P15056, G466V); assay: Cellular assay of target protein degradation, T-Rex 293 cells stably transfected with HA-BRAF G466V (HA immunofluorescence, high content imaging); format: cell-based
T2 construct: expressed in transfected cells
T2 sequence (P15056 whole entry G466V): as the sequence (P15056 whole entry V600E) above, with G466V, E600V counted along it
How it was run: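 HA-BRAF G466V levels were read by HA immunofluorescence and high-content imaging after 24 h compound exposure (final 30 nM–3 pM, 0.1% DMSO, 37 °C). Expression was induced with 0.75 ng/mL doxycycline. Outputs: half-maximal degradation concentration (DC50) and maximal degradation (Dmax) relative to control.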

[1] = half maximal degradation, T-Rex 293 HA-BRAF V600E; read-out: BRaf V600E DC50
[2] = maximum degradation observed, T-Rex 293 HA-BRAF V600E
[3] = half maximal degradation, T-Rex 293 HA-BRAF G466V; read-out: BRaf G466V DC50
[4] = maximum degradation observed, T-Rex 293 HA-BRAF G466V

Row | DC50 (BRAF V600E; [1]) [nM] | Dmax (BRAF V600E; [2]) [%] | DC50 (BRAF G466V; [3]) [nM] | Dmax (BRAF G466V; [4]) [%] | SMILES | DC50 (BRAF V600E; read-out: BRaf V600E DC50; half maximal degradation, T-Rex 293 HA-BRAF V600E) [nM] | DC50 (BRAF G466V; read-out: BRaf G466V DC50; half maximal degradation, T-Rex 293 HA-BRAF G466V) [nM]
1 | 5 to 50 | > 70 | 1 to 10 | 35 to 70 | O=C1CC[C@H](NC(=O)c2ccc(N3CCN(CCc4ccc(-c5cnc6[nH]cc(C(=O)c7c(F)ccc(NS(=O)(=O)N8CC[C@@H](F)C8)c7F)c6c5)cc4)CC3)cc2F)C(=O)N1 [Compound 27, 4-[4-[2-[4-[3-[2,6-difluoro-3-[[(3R)-3-fluoropyrrolidin-1-yl]sulfonylamino]benzoyl]-1H-pyrrolo[2,3-b]pyridin-5-yl]phenyl]ethyl]piperazin-1-yl]-N-[(3S)-2,6-dioxo-3-piperidyl]-2-fluoro-benzamide] |  | 
2 | > 500 |  | > 30 |  | Nc1ccc(F)c(C(=O)c2c[nH]c3ncc(-c4ccc(N5CCC(CN6CC7(C6)CN(c6ccc(C(=O)N[C@H]8CCC(=O)NC8=O)c(F)c6)C7)CC5)cc4)cc23)c1F [Compound 363, 4-{6-[(1-{4-[3-(3-amino-2,6-difluorobenzoyl)-1H-pyrrolo[2,3-b]pyridin-5-yl]phenyl}piperidin-4-yl)methyl]-2,6-diazaspiro[3.3]heptan-2-yl}-N-[(3S)-2,6-dioxopiperidin-3-yl]-2-fluorobenzamide] |  | 
3 | 5 to 50 | 35 to 70 | 1 to 10 | > 70 | COc1cc(N2CC3(CC(CN4CCN(c5ccc(-c6cnc7[nH]cc(C(=O)c8c(F)ccc(NS(=O)(=O)N9CC[C@@H](F)C9)c8F)c7c6)cc5)CC4)C3)C2)cc2c1C(=O)N(C1CCC(=O)NC1=O)C2 (stereo partly drawn) [Compound 59, (3R)-N-[3-(5-{4-[4-({2-[2-(2,6-dioxopiperidin-3-yl)-7-methoxy-1-oxo-2,3-dihydro-1H-isoindol-5-yl]-2-azaspiro[3.3]heptan-6-yl}methyl)piperazin-1-yl]phenyl}-1H-pyrrolo[2,3-b]pyridine-3-carbonyl)-2,4-difluorophenyl]-3-fluoropyrrolidine-1-sulfonamide] |  | 
4 | 5 to 50 | 35 to 70 | 1 to 10 | > 70 | O=C1CC[C@@H](N2Cc3cc(C[C@@H](O)CN4CCC(c5ccc(-c6cnc7[nH]cc(C(=O)c8c(F)ccc(NS(=O)(=O)N9CC[C@@H](F)C9)c8F)c7c6)cc5)CC4)ccc3C2=O)C(=O)N1 [Compound 108, (3R)-N-{3-[5-(4-{1-[(2R)-3-{2-[(3R)-2,6-dioxopiperidin-3-yl]-1-oxo-2,3-dihydro-1H-isoindol-5-yl}-2-hydroxypropyl]piperidin-4-yl}phenyl)-1H-pyrrolo[2,3-b]pyridine-3-carbonyl]-2,4-difluorophenyl}-3-fluoropyrrolidine-1-sulfonamide] |  | 
5 | < 5 | 35 to 70 | 1 to 10 | > 70 | O=C1CCC(N2Cc3cc(N4CCC(CN5CC6(CCN(c7ncc(-c8cnc9[nH]cc(C(=O)c%10c(F)ccc(NS(=O)(=O)N%11CC[C@@H](F)C%11)c%10F)c9c8)cn7)C6)C5)CC4)ccc3C2=O)C(=O)N1 (stereo partly drawn) [Compound 93, (3R)-N-[3-(5-{2-[2-({1-[2-(2,6-dioxopiperidin-3-yl)-1-oxo-2,3-dihydro-1H-isoindol-5-yl]piperidin-4-yl}lmethyl)-2,6-diazaspiro[3.4]octan-6-yl]pyrimidin-5-yl}-1H-pyrrolo[2,3-b]pyridine-3-carbonyl)-2,4-difluorophenyl]-3-fluoropyrrolidine-1-sulfonamide] |  | 
6 | < 5 | 35 to 70 | < 1 | > 70 | O=C1CC[C@@H](N2Cc3cc(C4CCN(CC5CCN(c6ccc(-c7cnc8[nH]cc(C(=O)c9c(F)ccc(NS(=O)(=O)N%10CC[C@@H](F)C%10)c9F)c8c7)cc6F)CC5)CC4)ccc3C2=O)C(=O)N1 [Compound 88, (3R)-N-{3-[5-(4-{4-[(4-{2-[(3R)-2,6-dioxopiperidin-3-yl]-1-oxo-2,3-dihydro-1H-isoindol-5-yl}piperidin-1-yl)methyl]piperidin-1-yl}-3-fluorophenyl)-1H-pyrrolo[2,3-b]pyridine-3-carbonyl]-2,4-difluorophenyl}-3-fluoropyrrolidine-1-sulfonamide] |  | 
7 | > 500 | > 70 | > 30 |  | O=C1CCC(N2Cc3cc(CN4CCN(c5ccc(-c6cnc7[nH]cc(C(=O)c8c(F)ccc(NS(=O)(=O)N9CC[C@@H](F)C9)c8F)c7c6)cc5)C[C@@H]4CO)ccc3C2=O)C(=O)N1 (stereo partly drawn) [Compound 78, (3R)-N-[3-(5-{4-[(3R)-4-{[2-(2,6-dioxopiperidin-3-yl)-1-oxo-2,3-dihydro-1H-isoindol-5-yl]methyl}-3-(hydroxymethyl)piperazin-1-yl]phenyl}-1H-pyrrolo [2,3-b]pyridine-3-carbonyl)-2,4-difluorophenyl]-3-fluoropyrrolidine-1-sulfonamide] |  | 
8 | 5 to 50 | < 35 | 1 to 10 | > 70 | COc1cc(N2CC3(CN(CC4CCN(c5ccc(-c6cnc7[nH]cc(C(=O)c8c(F)ccc(NS(=O)(=O)N9CC[C@@H](F)C9)c8F)c7c6)cc5)CC4)C3)C2)cc2c1C(=O)N([C@@H]1CCC(=O)NC1=O)C2 [Compound 250, (3R)-N-{3-[5-(4-{4-[(6-{2-[(3R)-2,6-dioxopiperidin-3-yl]-7-methoxy-1-oxo-2,3-dihydro-1H-isoindol-5-yl}-2,6-diazaspiro[3.3]heptan-2-yl)methyl]piperidin-1-yl}phenyl)-1H-pyrrolo [2,3-b]pyridine-3-carbonyl]-2,4-difluorophenyl}-3-fluoropyrrolidine-1-sulfonamide] |  | 
9 | 5 to 50 | 35 to 70 | 10 to 30 | 35 to 70 | C[C@@]12CN(CC3CCN(c4ccc5c(c4)CN(C4CCC(=O)NC4=O)C5=O)CC3)C[C@]1(C)CN(c1ccc(-c3cnc4[nH]cc(C(=O)c5c(F)ccc(NS(=O)(=O)N6CC[C@@H](F)C6)c5F)c4c3)cc1)C2 (stereo partly drawn) [Compound 2, (3R)-N-[3-(5-{4-[(3aR,6aS)-5-({1-[2-(2,6-dioxopiperidin-3-yl)-1-oxo-2,3-dihydro-1H-isoindol-5-yl]piperidin-4-yl}methyl)-3a,6a-dimethyl-octahydropyrrolo[3,4-c]pyrrol-2-yl]phenyl}-1H-pyrrolo[2,3-b]pyridine-3-carbonyl)-2,4-difluorophenyl]-3-fluoropyrrolidine-1-sulfonamide] |  | 
10 | 5 to 50 | < 35 | 1 to 10 | > 70 | O=C1CCC(N2Cc3ccc(C4CCN(CC5CCN(c6ccc(-c7cnc8[nH]cc(C(=O)c9c(F)ccc(NS(=O)(=O)N%10CC[C@@H](F)C%10)c9F)c8c7)cc6)CC5)CC4)cc3C2=O)C(=O)N1 (stereo partly drawn) [Compound 185, (3R)-N-[3-(5-{4-[4-({4-[2-(2,6-dioxopiperidin-3-yl)-3-oxo-2,3-dihydro-1H-isoindol-5-yl]piperidin-1-yl}methyl)piperidin-1-yl]phenyl}-1H-pyrrolo[2,3-b]pyridine-3-carbonyl)-2,4-difluorophenyl]-3-fluoropyrrolidine-1-sulfonamide] |  | 
11 | 50 to 500 | 35 to 70 | < 1 | > 70 | O=C1CC[C@@H](N2Cc3cc([C@@H](O)CCN4CCN(c5ccc(-c6cnc7[nH]cc(C(=O)c8c(F)ccc(NS(=O)(=O)N9CC[C@@H](F)C9)c8F)c7c6)cc5)CC4)c(F)cc3C2=O)C(=O)N1 [Compound 301, (3R)-N-{3-[5-(4-{4-[(3S)-3-{2-[(3R)-2,6-dioxopiperidin-3-yl]-6-fluoro-1-oxo-2,3-dihydro-1H-isoindol-5-yl}-3-hydroxypropyl]piperazin-1-yl}phenyl)-1H-pyrrolo[2,3-b]pyridine-3-carbonyl]-2,4-difluorophenyl}-3-fluoropyrrolidine-1 sulfonamide] |  | 

Row | SMILES | DC50 (BRAF V600E; [1]) [nM] | Dmax (BRAF V600E; [2]) [%] | DC50 (BRAF G466V; [3]) [nM] | Dmax (BRAF G466V; [4]) [%] | DC50 (BRAF V600E; read-out: BRaf V600E DC50; half maximal degradation, T-Rex 293 HA-BRAF V600E) [nM] | DC50 (BRAF G466V; read-out: BRaf G466V DC50; half maximal degradation, T-Rex 293 HA-BRAF G466V) [nM]
12 | O=C1CCC(N2Cc3cc(C4CCN(C[C@@H]5C[C@H]6CC[C@@H](C5)N6c5ccc(-c6cnc7[nH]cc(C(=O)c8c(F)ccc(NS(=O)(=O)N9CC[C@@H](F)C9)c8F)c7c6)cc5)CC4)ccc3C2=O)C(=O)N1 (stereo partly drawn) [Compound 180, (3R)-N-[3-(5-{4-[(1R,3S,5S)-3-({4-[2-(2,6-dioxopiperidin-3-yl)-1-oxo-2,3-dihydro-1H-isoindol-5-yl]piperidin-1-yl}methyl)-8-azabicyclo[3.2.1]octan-8-yl]phenyl}-1H-pyrrolo[2,3-b]pyridine-3-carbonyl)-2,4-difluorophenyl]-3-fluoropyrrolidine-1-sulfonamide] | 5 to 50 | 35 to 70 | 1 to 10 | > 70 |  | 
13 | O=C1CCC(N2Cc3cc(C4CCN(CC5CC6(C5)CN(c5ccc(-c7cnc8[nH]cc(C(=O)c9c(F)ccc(NS(=O)(=O)N%10CC[C@@H](F)C%10)c9F)c8c7)cc5F)C6)CC4)ccc3C2=O)C(=O)N1 (stereo partly drawn) [Compound 319, (3R)-N-[3-(5-{4-[6-({4-[2-(2,6-dioxopiperidin-3-yl)-1-oxo-2,3-dihydro-1H-isoindol-5-yl]piperidin-1-yl}methyl)-2-azaspiro[3.3]heptan-2-yl]-3-fluorophenyl}-1H-pyrrolo[2,3-b]pyridine-3-carbonyl)-2,4-difluorophenyl]-3-fluoropyrrolidine-1-sulfonamide] |  | 35 to 70 |  | > 70 | 5 to 50 | 1 to 10
